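Growth conditions: 96-well plates. Treatment: test compound, 48 hours, 5 concentrations. Analysis: linear interpolation between bracketing concentrations; unreached endpoints set to highest concentration. At the GI50, growth is halved.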 The source made the active and inactive calls. Rule as the data show it: active = GI50 up to about 1.1 µM and inactive = higher.
Assays:
Test in all cases: NCI tumour cell line growth inhibition, 48 h
HCT-116 = test system: HCT-116
PC-3 = test system: PC-3
UO-31 = test system: UO-31
DU-145 = test system: DU-145
SF-539 = test system: SF-539
SW-620 = test system: SW-620
COLO 205 = test system: COLO 205
SNB-75 = test system: SNB-75
OVCAR-4 = test system: OVCAR-4
Malme-3M = test system: Malme-3M
UACC-62 = test system: UACC-62
MDA-MB-435 = test system: MDA-MB-435
U-251 = test system: U-251
NCI-H226 = test system: NCI-H226
ACHN = test system: ACHN
CAKI-1 = test system: CAKI-1
IGROV-1 = test system: IGROV-1
A549 = test system: A549
HOP-92 = test system: HOP-92
786-0 = test system: 786-0
MCF7 = test system: MCF7
Hs-578T = test system: Hs-578T
NCI/ADR-RES = test system: NCI/ADR-RES
SF-268 = test system: SF-268
SK-MEL-28 = test system: SK-MEL-28
SK-MEL-5 = test system: SK-MEL-5
HOP-62 = test system: HOP-62
NCI-H460 = test system: NCI-H460
CCRF-CEM = test system: CCRF-CEM
UACC-257 = test system: UACC-257
NCI-H23 = test system: NCI-H23
SK-MEL-2 = test system: SK-MEL-2
SF-295 = test system: SF-295
EKVX = test system: EKVX
KM12 = test system: KM12
MDA-N = test system: MDA-N
LOX IMVI = test system: LOX IMVI
SR = test system: SR
BT-549 = test system: BT-549
T47D = test system: T47D
HCT-15 = test system: HCT-15
TK-10 = test system: TK-10
SN12C = test system: SN12C
MOLT-4 = test system: MOLT-4
SNB-19 = test system: SNB-19
SK-OV-3 = test system: SK-OV-3
HT-29 = test system: HT-29
OVCAR-8 = test system: OVCAR-8
A498 = test system: A498
M14 = test system: M14
OVCAR-3 = test system: OVCAR-3
NCI-H522 = test system: NCI-H522
HL-60 = test system: HL-60
RXF 393 = test system: RXF 393
OVCAR-5 = test system: OVCAR-5
MDA-MB-231 = test system: MDA-MB-231
RPMI-8226 = test system: RPMI-8226
K562 = test system: K562
HCC 2998 = test system: HCC 2998

SMILES: O=C(O)Cc1ccc(Nc2nc3ccccc3nc2C(=O)O)cc1
- GI50 (HCT-116): > 100 µM (inactive)
- GI50 (PC-3): > 100 µM (inactive)
- GI50 (UO-31): > 100 µM (inactive)
- GI50 (DU-145): > 100 µM (inactive)
- GI50 (SF-539): > 100 µM (inactive)
- GI50 (SW-620): > 100 µM (inactive)
- GI50 (COLO 205): > 100 µM (inactive)
- GI50 (SNB-75): > 100 µM (inactive)
- GI50 (OVCAR-4): > 100 µM (inactive)
- GI50 (Malme-3M): > 100 µM (inactive)
- GI50 (UACC-62): > 100 µM (inactive)
- GI50 (MDA-MB-435): > 100 µM (inactive)
- GI50 (U-251): > 100 µM (inactive)
- GI50 (NCI-H226): > 100 µM (inactive)
- GI50 (ACHN): > 100 µM (inactive)
- GI50 (CAKI-1): > 100 µM (inactive)
- GI50 (IGROV-1): > 100 µM (inactive)
- GI50 (A549): > 100 µM (inactive)
- GI50 (HOP-92): > 100 µM (inactive)
- GI50 (786-0): > 100 µM (inactive)
- GI50 (MCF7): > 100 µM (inactive)
- GI50 (Hs-578T): > 100 µM (inactive)
- GI50 (NCI/ADR-RES): > 100 µM (inactive)
- GI50 (SF-268): > 100 µM (inactive)
- GI50 (SK-MEL-28): > 100 µM (inactive)
- GI50 (SK-MEL-5): > 100 µM (inactive)
- GI50 (HOP-62): > 100 µM (inactive)
- GI50 (NCI-H460): > 100 µM (inactive)
- GI50 (CCRF-CEM): > 100 µM (inactive)
- GI50 (UACC-257): > 100 µM (inactive)
- GI50 (NCI-H23): > 100 µM (inactive)
- GI50 (SK-MEL-2): > 100 µM (inactive)
- GI50 (SF-295): > 100 µM (inactive)
- GI50 (EKVX): > 100 µM (inactive)
- GI50 (KM12): > 100 µM (inactive)
- GI50 (MDA-N): > 100 µM (inactive)
- GI50 (LOX IMVI): > 100 µM (inactive)
- GI50 (SR): > 100 µM (inactive)
- GI50 (BT-549): > 100 µM (inactive)
- GI50 (T47D): > 100 µM (inactive)
- GI50 (HCT-15): > 100 µM
- GI50 (TK-10): > 100 µM (inactive)
- GI50 (SN12C): > 100 µM (inactive)
- GI50 (MOLT-4): > 100 µM (inactive)
- GI50 (SNB-19): > 100 µM (inactive)
- GI50 (SK-OV-3): > 100 µM (inactive)
- GI50 (HT-29): > 100 µM (inactive)
- GI50 (OVCAR-8): > 100 µM (inactive)
- GI50 (A498): > 100 µM (inactive)
- GI50 (M14): > 100 µM (inactive)
- GI50 (OVCAR-3): > 100 µM (inactive)
- GI50 (NCI-H522): > 100 µM (inactive)
- GI50 (HL-60): > 100 µM (inactive)
- GI50 (RXF 393): > 100 µM (inactive)
- GI50 (OVCAR-5): > 100 µM (inactive)

SMILES: COc1ccc(CCc2ccc3c(c2)OCO3)cc1
- GI50 (HCT-116): 36.6 µM (inactive)
- GI50 (MDA-MB-231): > 100 µM (inactive)
- GI50 (PC-3): 34.6 µM (inactive)
- GI50 (DU-145): 43 µM (inactive)
- GI50 (SF-539): 92 µM (inactive)
- GI50 (SW-620): 32.8 µM (inactive)
- GI50 (COLO 205): > 100 µM (inactive)
- GI50 (SNB-75): > 100 µM (inactive)
- GI50 (OVCAR-4): 68.7 µM (inactive)
- GI50 (Malme-3M): > 100 µM (inactive)
- GI50 (UACC-62): > 100 µM (inactive)
- GI50 (MDA-MB-435): 19.6 µM (inactive)
- GI50 (U-251): 33.7 µM (inactive)
- GI50 (NCI-H226): 62.5 µM (inactive)
- GI50 (ACHN): > 100 µM (inactive)
- GI50 (CAKI-1): 75.5 µM (inactive)
- GI50 (RPMI-8226): 36.6 µM (inactive)
- GI50 (IGROV-1): 70.5 µM (inactive)
- GI50 (A549): 68.9 µM (inactive)
- GI50 (HOP-92): 36.8 µM (inactive)
- GI50 (786-0): > 100 µM (inactive)
- GI50 (MCF7): 35.8 µM (inactive)
- GI50 (Hs-578T): 86.3 µM (inactive)
- GI50 (NCI/ADR-RES): 77.4 µM (inactive)
- GI50 (SF-268): > 100 µM (inactive)
- GI50 (SK-MEL-28): > 100 µM (inactive)
- GI50 (SK-MEL-5): 34.9 µM (inactive)
- GI50 (HOP-62): > 100 µM (inactive)
- GI50 (NCI-H460): > 100 µM (inactive)
- GI50 (CCRF-CEM): 35.9 µM (inactive)
- GI50 (UACC-257): 77.1 µM (inactive)
- GI50 (NCI-H23): > 100 µM (inactive)
- GI50 (SK-MEL-2): 31.5 µM (inactive)
- GI50 (SF-295): 65 µM (inactive)
- GI50 (EKVX): 66.8 µM (inactive)
- GI50 (KM12): 29.2 µM (inactive)
- GI50 (MDA-N): 28.9 µM (inactive)
- GI50 (LOX IMVI): 73.6 µM (inactive)
- GI50 (SR): 17.5 µM (inactive)
- GI50 (BT-549): 62.5 µM (inactive)
- GI50 (HCT-15): 35.2 µM
- GI50 (TK-10): > 100 µM (inactive)
- GI50 (SN12C): > 100 µM (inactive)
- GI50 (K562): 38.5 µM (inactive)
- GI50 (MOLT-4): 34.7 µM (inactive)
- GI50 (SNB-19): > 100 µM (inactive)
- GI50 (SK-OV-3): > 100 µM (inactive)
- GI50 (HT-29): 28.7 µM (inactive)
- GI50 (OVCAR-8): > 100 µM (inactive)
- GI50 (A498): > 100 µM (inactive)
- GI50 (M14): 49.8 µM (inactive)
- GI50 (OVCAR-3): 31.6 µM (inactive)
- GI50 (NCI-H522): 51.3 µM (inactive)
- GI50 (HCC 2998): 79.4 µM (inactive)
- GI50 (HL-60): 21.4 µM (inactive)
- GI50 (RXF 393): 21.9 µM (inactive)
- GI50 (OVCAR-5): > 100 µM (inactive)

SMILES: OCCN1c2ccccc2Sc2ccccc21
- GI50 (HCT-116): > 10 µM (inactive)
- GI50 (MDA-MB-231): > 10 µM (inactive)
- GI50 (PC-3): > 10 µM (inactive)
- GI50 (DU-145): > 10 µM (inactive)
- GI50 (SF-539): > 10 µM (inactive)
- GI50 (SW-620): > 10 µM (inactive)
- GI50 (COLO 205): > 10 µM (inactive)
- GI50 (SNB-75): > 10 µM (inactive)
- GI50 (OVCAR-4): > 10 µM (inactive)
- GI50 (Malme-3M): > 10 µM (inactive)
- GI50 (MDA-MB-435): > 10 µM (inactive)
- GI50 (U-251): > 10 µM (inactive)
- GI50 (ACHN): > 10 µM (inactive)
- GI50 (CAKI-1): > 10 µM (inactive)
- GI50 (RPMI-8226): > 10 µM (inactive)
- GI50 (A549): > 10 µM (inactive)
- GI50 (HOP-92): > 10 µM (inactive)
- GI50 (786-0): > 10 µM (inactive)
- GI50 (MCF7): > 10 µM (inactive)
- GI50 (Hs-578T): > 10 µM (inactive)
- GI50 (NCI/ADR-RES): > 10 µM (inactive)
- GI50 (SF-268): > 10 µM (inactive)
- GI50 (SK-MEL-28): > 10 µM (inactive)
- GI50 (SK-MEL-5): > 10 µM (inactive)
- GI50 (HOP-62): > 10 µM (inactive)
- GI50 (UACC-257): > 10 µM (inactive)
- GI50 (NCI-H23): > 10 µM (inactive)
- GI50 (SF-295): > 10 µM (inactive)
- GI50 (KM12): > 10 µM (inactive)
- GI50 (MDA-N): > 10 µM (inactive)
- GI50 (LOX IMVI): > 10 µM (inactive)
- GI50 (SR): > 10 µM (inactive)
- GI50 (BT-549): > 10 µM (inactive)
- GI50 (HCT-15): > 10 µM
- GI50 (TK-10): > 10 µM (inactive)
- GI50 (SN12C): > 10 µM (inactive)
- GI50 (K562): > 10 µM (inactive)
- GI50 (MOLT-4): > 10 µM (inactive)
- GI50 (SNB-19): > 10 µM (inactive)
- GI50 (SK-OV-3): > 10 µM (inactive)
- GI50 (HT-29): > 10 µM (inactive)
- GI50 (OVCAR-8): > 10 µM (inactive)
- GI50 (M14): > 10 µM (inactive)
- GI50 (OVCAR-3): > 10 µM (inactive)
- GI50 (NCI-H522): > 10 µM (inactive)
- GI50 (HCC 2998): > 10 µM (inactive)
- GI50 (HL-60): > 10 µM (inactive)
- GI50 (OVCAR-5): > 10 µM (inactive)
